Values joined by “and” are separate entries in the source; they are usually repeats but may differ in a detail not shown here. Identical values can stand only once.
Test system: NCI-H211 complex spheroid viability
Test: Anticancer human tumor NCI-H211 cell line growth inhibition [LSD1];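 also: luminescent viability read after seven days of drug exposure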;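 as to viability, T/C: 100% = DMSO vehicle control viability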
Conditions: for viability, T/C: stronger effect = lower value
Summary of the method: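 Multicellular complex spheroids of tumor cells with human endothelial cells (HUVEC) and mesenchymal stem cells; the LSD1 inhibitor iadademstat was combined with standard-of-care or investigational agents. Top concentration at or near clinical Cmax, half-log dilutions; final DMSO ≤0.25%.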

[1] = curve of first compound, second compound 0.1 µM
[2] = curve of first compound, second compound 0.316 µM
[3] = curve of first compound, second compound 1 µM
[4] = curve of first compound, second compound 3.16 µM
[5] = curve of first compound, second compound 10 µM
[6] = second compound 0.1 µM, first compound 0.0316 µM
[7] = second compound 0.1 µM, first compound 0.1 µM
[8] = second compound 0.1 µM, first compound 0.316 µM
[9] = second compound 0.1 µM, first compound 1 µM
[10] = second compound 0.1 µM, first compound 3.16 µM
[11] = second compound 0.1 µM, first compound 10 µM
[12] = second compound 0.316 µM, first compound 0.0316 µM
[13] = second compound 0.316 µM, first compound 0.1 µM
[14] = second compound 0.316 µM, first compound 0.316 µM
[15] = second compound 0.316 µM, first compound 1 µM
[16] = second compound 0.316 µM, first compound 3.16 µM
[17] = second compound 0.316 µM, first compound 10 µM
[18] = second compound 1 µM, first compound 0.0316 µM
[19] = second compound 1 µM, first compound 0.1 µM
[20] = second compound 1 µM, first compound 0.316 µM
[21] = second compound 1 µM, first compound 1 µM
[22] = second compound 1 µM, first compound 3.16 µM
[23] = second compound 1 µM, first compound 10 µM
[24] = second compound 3.16 µM, first compound 0.0316 µM
[25] = second compound 3.16 µM, first compound 0.1 µM
[26] = second compound 3.16 µM, first compound 0.316 µM
[27] = second compound 3.16 µM, first compound 1 µM
[28] = second compound 3.16 µM, first compound 3.16 µM
[29] = second compound 3.16 µM, first compound 10 µM
[30] = second compound 10 µM, first compound 0.0316 µM
[31] = second compound 10 µM, first compound 0.1 µM
[32] = second compound 10 µM, first compound 0.316 µM
[33] = second compound 10 µM, first compound 1 µM
[34] = second compound 10 µM, first compound 3.16 µM
[35] = second compound 10 µM, first compound 10 µM

Work on `CC1COCCN1c1cc(C2(S(C)(=N)=O)CC2)nc(-c2ccnc3[nH]ccc23)n1` (stereo unspecified) + NC1CC1c1ccc(-c2cccc(O)c2)cc1 yielded an IC50 [1] of 258 nM, an IC50 [2] of 264 nM and an IC50 [3] of 381 nM. The IC50 [4] was 317 nM, the IC50 [5] was 115 nM and the viability, T/C [6] was 89.3%. The viability, T/C [7] was 68.7%, the viability, T/C [8] was 48.5% and the viability, T/C [9] was 19.1%. It also gave a viability, T/C [10] of 4.67%, a viability, T/C [11] of 2.73% and a viability, T/C [12] of 85.4%. It also gave a viability, T/C [13] of 72.9%, a viability, T/C [14] of 46.9% and a viability, T/C [15] of 13.5%. It also gave a viability, T/C [16] of 5.02%, a viability, T/C [17] of 2.53% and a viability, T/C [18] of 74.2%. The viability, T/C [19] was 64.3%, the viability, T/C [20] was 57.5% and the viability, T/C [21] was 15%. It also gave a viability, T/C [22] of 5.48%, a viability, T/C [23] of 3.11% and a viability, T/C [24] of 69.6%. The viability, T/C [25] was 73.2%, the viability, T/C [26] was 48.8% and the viability, T/C [27] was 16.3%. For the same compound, the viability, T/C [28] was 5.24%, the viability, T/C [29] was 3% and the viability, T/C [30] was 65.7%. The viability, T/C [31] was 51.6%, the viability, T/C [32] was 33.1% and the viability, T/C [33] was 14.5%. For the same compound, the viability, T/C [34] was 5.1% and the viability, T/C [35] was 3.28%.

For `CCc1c2c(nc3ccc(O)cc13)-c1cc3c(c(=O)n1C2)COC(=O)[C@]3(O)CC`, the viability, T/C (compound 0.000949 µM) was 1.09% and 3.31%, the viability, T/C (compound 0.003 µM) was 0.88% and 2.36% and the viability, T/C (compound 0.00949 µM) was 0.42% and 1.27%. For the same compound, the viability, T/C (compound 0.03 µM) was 0.59% and 0.51%, the viability, T/C (compound 0.0949 µM) was 0.14% and 0.18% and the viability, T/C (compound 0.3 µM) was 0.21% and 0.25%. For the same compound, the IC50 (curve of compound) was < 0.949 nM.

For `COc1cc(Nc2ncc3c(n2)-c2ccc(Cl)cc2C(c2c(F)cccc2OC)=NC3)ccc1C(=O)O`, the viability, T/C (compound 0.00316 µM) was 44.2% and 45.2%, the viability, T/C (compound 0.01 µM) was 8.97% and 8.03% and the viability, T/C (compound 0.0316 µM) was 5.37% and 3.95%. The viability, T/C (compound 0.1 µM) was 4.19% and 5.61%, the viability, T/C (compound 0.316 µM) was 3.59% and 4.36% and the viability, T/C (compound 1 µM) was 3.38% and 3.29%. For the same compound, the IC50 (curve of compound) was < 3.16 nM.

In the case of `CC1(C)CCC(CN2CCN(c3ccc(C(=O)NS(=O)(=O)c4ccc(NCC5CCOCC5)c([N+](=O)[O-])c4)c(Oc4cnc5[nH]ccc5c4)c3)CC2)=C(c2ccc(Cl)cc2)C1` + NC1CC1c1ccc(-c2cccc(O)c2)cc1, the IC50 [1] is reported as < 31.6 nM, the IC50 [2] is reported as < 31.6 nM and the IC50 [3] is reported as < 31.6 nM. For the same compound, the IC50 [4] was < 31.6 nM, the IC50 [5] was < 31.6 nM and the viability, T/C [6] was 43.8%. The viability, T/C [7] was 38.7%, the viability, T/C [8] was 35% and the viability, T/C [9] was 53.4%. It also gave a viability, T/C [10] of 100%, a viability, T/C [11] of 52.7% and a viability, T/C [12] of 36.8%. The viability, T/C [13] was 37.9%, the viability, T/C [14] was 37.2% and the viability, T/C [15] was 53.2%. The viability, T/C [16] was 100%, the viability, T/C [17] was 65.1% and the viability, T/C [18] was 27.5%. The viability, T/C [19] was 47.8%, the viability, T/C [20] was 26.1% and the viability, T/C [21] was 44.5%. The viability, T/C [22] was 90.8%, the viability, T/C [23] was 55% and the viability, T/C [24] was 32.1%. It also gave a viability, T/C [25] of 28.1%, a viability, T/C [26] of 29.8% and a viability, T/C [27] of 30.8%. It also gave a viability, T/C [28] of 58.9%, a viability, T/C [29] of 46.2% and a viability, T/C [30] of 32.7%. It also gave a viability, T/C [31] of 26.2%, a viability, T/C [32] of 21.2% and a viability, T/C [33] of 28.2%. For the same compound, the viability, T/C [34] was 30.5% and the viability, T/C [35] was 21%.

`CC(C)c1c(-c2ccccc2)nc2c(C#N)c[nH]n2c1=O` was tested, and the viability, T/C (compound 0.0316 µM) was 104% and 81.5%, the viability, T/C (compound 0.1 µM) was 127% and 88% and the viability, T/C (compound 0.316 µM) was 103% and 68.7%. For the same compound, the viability, T/C (compound 1 µM) was 114% and 68.7%, the viability, T/C (compound 3.16 µM) was 98.9% and 67% and the viability, T/C (compound 10 µM) was 97.3% and 75.2%. The IC50 (curve of compound) was > 10000 nM.

For `CC(C)CC(NC(=O)CNC(=O)c1cc(Cl)ccc1Cl)B1OC(=O)CC(CC(=O)O)(C(=O)O)O1` (stereo unspecified) + NC1CCC(NC2CC2c2ccccc2)CC1, the IC50 [1] was 15.4 nM, the IC50 [2] was 18 nM and the IC50 [3] was 15.3 nM. The IC50 [4] was 11.8 nM, the IC50 [5] was < 0.316 nM and the viability, T/C (second compound 0.1 µM, first compound 0.000316 µM) was 81.6%. It also gave a viability, T/C (second compound 0.1 µM, first compound 0.001 µM) of 90.2%, a viability, T/C (second compound 0.1 µM, first compound 0.00316 µM) of 103% and a viability, T/C (second compound 0.1 µM, first compound 0.01 µM) of 65.1%. For the same compound, the viability, T/C [6] was 22.5%, the viability, T/C [7] was 7.53% and the viability, T/C (second compound 0.316 µM, first compound 0.000316 µM) was 81.5%. The viability, T/C (second compound 0.316 µM, first compound 0.001 µM) was 93.3%, the viability, T/C (second compound 0.316 µM, first compound 0.00316 µM) was 111% and the viability, T/C (second compound 0.316 µM, first compound 0.01 µM) was 76.9%. The viability, T/C [12] was 23.5%, the viability, T/C [13] was 7.18% and the viability, T/C (second compound 1 µM, first compound 0.000316 µM) was 79.3%. The viability, T/C (second compound 1 µM, first compound 0.001 µM) was 85%, the viability, T/C (second compound 1 µM, first compound 0.00316 µM) was 109% and the viability, T/C (second compound 1 µM, first compound 0.01 µM) was 65.3%. For the same compound, the viability, T/C [18] was 21.4%, the viability, T/C [19] was 6.25% and the viability, T/C (second compound 3.16 µM, first compound 0.000316 µM) was 59.8%. For the same compound, the viability, T/C (second compound 3.16 µM, first compound 0.001 µM) was 65%, the viability, T/C (second compound 3.16 µM, first compound 0.00316 µM) was 95.6% and the viability, T/C (second compound 3.16 µM, first compound 0.01 µM) was 53%. The viability, T/C [24] was 18.1%, the viability, T/C [25] was 5.75% and the viability, T/C (second compound 10 µM, first compound 0.000316 µM) was 44.9%. It also gave a viability, T/C (second compound 10 µM, first compound 0.001 µM) of 37.5%, a viability, T/C (second compound 10 µM, first compound 0.00316 µM) of 51.2% and a viability, T/C (second compound 10 µM, first compound 0.01 µM) of 35.5%. It also gave a viability, T/C [30] of 12% and a viability, T/C [31] of 2.35%.

Compound `Nc1ccccc1NC(=O)c1ccc(CNC(=O)OCc2cccnc2)cc1` + NC1CCC(NC2CC2c2ccccc2)CC1 has an IC50 [1] of 11.9 nM, an IC50 [2] of 13.2 nM and an IC50 [3] of 9.95 nM. For the same compound, the IC50 [4] was < 9.49 nM, the IC50 [5] was < 9.49 nM and the viability, T/C (second compound 0.1 µM, first compound 0.00949 µM) was 54.5%. It also gave a viability, T/C (second compound 0.1 µM, first compound 0.03 µM) of 32.1%, a viability, T/C (second compound 0.1 µM, first compound 0.0949 µM) of 4.58% and a viability, T/C (second compound 0.1 µM, first compound 0.3 µM) of 1.24%. For the same compound, the viability, T/C (second compound 0.1 µM, first compound 0.949 µM) was 0.63%, the viability, T/C (second compound 0.1 µM, first compound 3 µM) was 0.12% and the viability, T/C (second compound 0.316 µM, first compound 0.00949 µM) was 55.7%. For the same compound, the viability, T/C (second compound 0.316 µM, first compound 0.03 µM) was 35.9%, the viability, T/C (second compound 0.316 µM, first compound 0.0949 µM) was 4.66% and the viability, T/C (second compound 0.316 µM, first compound 0.3 µM) was 1.07%. For the same compound, the viability, T/C (second compound 0.316 µM, first compound 0.949 µM) was 0.8%, the viability, T/C (second compound 0.316 µM, first compound 3 µM) was 0.15% and the viability, T/C (second compound 1 µM, first compound 0.00949 µM) was 51%. The viability, T/C (second compound 1 µM, first compound 0.03 µM) was 27.2%, the viability, T/C (second compound 1 µM, first compound 0.0949 µM) was 3.65% and the viability, T/C (second compound 1 µM, first compound 0.3 µM) was 0.99%. For the same compound, the viability, T/C (second compound 1 µM, first compound 0.949 µM) was 0.68%, the viability, T/C (second compound 1 µM, first compound 3 µM) was 0.11% and the viability, T/C (second compound 3.16 µM, first compound 0.00949 µM) was 38%. It also gave a viability, T/C (second compound 3.16 µM, first compound 0.03 µM) of 20.3%, a viability, T/C (second compound 3.16 µM, first compound 0.0949 µM) of 3.37% and a viability, T/C (second compound 3.16 µM, first compound 0.3 µM) of 0.53%. It also gave a viability, T/C (second compound 3.16 µM, first compound 0.949 µM) of 0.39%, a viability, T/C (second compound 3.16 µM, first compound 3 µM) of 0.12% and a viability, T/C (second compound 10 µM, first compound 0.00949 µM) of 29.4%. The viability, T/C (second compound 10 µM, first compound 0.03 µM) was 6.92%, the viability, T/C (second compound 10 µM, first compound 0.0949 µM) was 1% and the viability, T/C (second compound 10 µM, first compound 0.3 µM) was 0.3%. It also gave a viability, T/C (second compound 10 µM, first compound 0.949 µM) of 0.22% and a viability, T/C (second compound 10 µM, first compound 3 µM) of 5.88%.
